Laboratory results reported in patent US9637529B2, “Medicament for atrophy treatment or increasing cell growth” (SIMU TRADE CONSULTING GMBH & CO. LEASING KG, priority 2012, dated 2017).
Entries after “also recorded” stand apart in the source; their conditions may differ.

How the values were obtained:
zebrafish = assay: Zebrafish TUNEL in situ staining of apoptotic cells; type: in vivo; conditions: gill, skeletal muscle and tail sections, versus untreated animals
Experimental: FIG. 18: Apoptotic cells detected by TUNEL technology in gill, skeletal muscle and tail sections.
SERF2 was administered by a) injection of the native protein into the yolk sac of 3 day post fertilization (dpf) animals and freshly fertilized eggs (2-8 cell stage) in various protein concentrations or chronic incubation with the native protein to supply it via diffusion. For in deep analysis of angiogenic effects flk-1 transgenic animals with gfp (green fluorescent protein) labelled endothelium were used. For all other experiments wildtype (wdt) animals were used.
Apoptotic. cells were detected by TUNEL technology using in situ Cell Death Detection Kit, Fluorescein (Roche Applied Science, Mannheim, Germany) according to the manufacturer's instructions. Statistical Analysis. The acquired data statistically analyzed by using a two tailed students t-Test (Microsoft Excel) and significance was accepted when P<0.05. Data are presented as mean±S.E.M.

[1] = system: rat skeletal muscle cells (L6); assay: AlamarBlue proliferation assay, L6 cells; type: cell-based
Experimental: FIG. 2: Effect of SERF2 on Proliferation of rat skeletal muscle cells (L6). 1×10^4 L6 cells were seeded per well containing 100 μl growth medium. Cells were incubated over night at +37° C., 5% v/v CO^2 and humidified atmosphere. Prior performing the assay, viability of cells was checked under the microscope. Cells were washed three times with 100 μl DPBS per well. SERF2 was diluted […]) in DMEM and 100 μl/well were added to the cells. Finally, cells were incubated at +37° C. for various time points. Subsequently 10 μl/well AlamarBlue™ reagent (Invitrogen) was added. Plates were incubated for one hour at +37° C. Fluorescence (Ex. 570 nm, Em. 585 nm) was measured using a Varioskan Flash multi-plate reader (Thermo Scientific). Obtained Data were evaluated using Microsoft Excel and Graph Pad Prism V4.
FIG. 6: Kinetics of the Effect of SERF2 on Proliferation of rat skeletal muscle cells (L6). Cells stimulated with SERF2 (green line) responded with proliferation and reached a max. proliferation rate after 6 days. Proliferation assay was performed essentially as in FIG. 2. Incubation times were 24, 48, 72 and 144 hrs, the SERF2 concentration added was 5 μg/ml.
Rat derived embryonic cardiomyocytes H9c2 (ATTC CRL-1446) and embryonic skeletal muscle cells L6 (ATTC CRL-1458) were cultured in Dulbecco's Modified Eagle Medium high glucose (DMEM, Sigma Aldrich) containing 10% v/v fetal calf serum (FCS, PAA) and 1% v/v Penicillin/Streptamycin (Gibco). Cells were grown in 80 cm2 cell culture flasks (NUNC) using 15 ml growth medium. Both cell lines were incubated under humidified atmosphere at +37° C. and 5% v/v CO^2. Cells were splitted when a confluency of approximately 90% was reached. […] Cell number and viability were determined by trypanblue exclusion performed by using an automated cell analyzer (CEDEX, Innovatis). […]
Proliferation was measured using the AlamarBlue™ assay according to the manufacturer's protocol. […] Fluorescence (Ex. 570 nm, Em. 585 nm) was measured using a Varioskan Flash multi-plate reader (Thermo Scientific). Data were evaluated using Microsoft Excel and GraphPad Prism V4.

Substance: SERF2: Small EDRK-rich factor 2, mature protein of 59 amino acids (SEQ ID NO: 1) (MTRGNQRELARQKNMKKQSDSVKGKRRDDGLSAAARKQRDSEIMQQKQKKANEKKEEPK; homo sapiens)
- number of apoptotic cells (TUNEL) (zebrafish): reduced number of apoptotic cells; also recorded: lower in different regions as compared to untreated animals
- proliferative effect on L6 rat skeletal muscle cells ([1]; AlamarBlue, single treatment, read daily until day six): proliferative effect on L6 rat skeletal muscle cells in a dose- and time-dependent manner
- time to max. proliferation rate, L6 ([1]; SERF2 5 μg/ml, incubation 24, 48, 72 and 144 hrs): 6 days
- time of maximum proliferative effect, L6 ([1]; incubation time): three to six
